# What was measured:
# TR-β = target: T1, TR-β (Homo sapiens, UniProt P10828); assay: In vitro TR-β activity (in-house protocol); format: cell-based; details: for fold induction at 0.001 µM: Conc. 1 nM; for fold induction at 0.001 µM / fold induction at 0.01 µM / fold induction at 0.1 µM / fold induction at 1 µM: read-out: TR-β Fold Induction w.r.t T3(100 nm); for fold induction at 0.01 µM: Conc. 10 nM; for fold induction at 0.1 µM: Conc. 100 nM; for fold induction at 1 µM: Conc. 1000 nM
# T1 sequence (P10828 1-461): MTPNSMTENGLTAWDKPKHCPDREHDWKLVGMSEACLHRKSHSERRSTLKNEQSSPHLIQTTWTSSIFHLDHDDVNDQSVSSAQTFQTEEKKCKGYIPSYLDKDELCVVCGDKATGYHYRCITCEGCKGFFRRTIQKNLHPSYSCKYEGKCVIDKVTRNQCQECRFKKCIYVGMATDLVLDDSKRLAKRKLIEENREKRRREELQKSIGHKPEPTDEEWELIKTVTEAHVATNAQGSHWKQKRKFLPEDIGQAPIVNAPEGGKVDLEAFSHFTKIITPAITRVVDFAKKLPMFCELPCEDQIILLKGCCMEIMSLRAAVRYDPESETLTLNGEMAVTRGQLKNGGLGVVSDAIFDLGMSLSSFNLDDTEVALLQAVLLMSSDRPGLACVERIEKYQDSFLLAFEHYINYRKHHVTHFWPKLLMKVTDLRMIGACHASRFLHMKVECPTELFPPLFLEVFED
# Experimental: (§1) Invitro TR-α & TR-β activities were determined as per in-house protocols and the results of representative compounds are provided in tables 1 & 2 below as a proof of the efficacies of the novel class of compounds disclosed above.
# TR-α = target: T2, TR-α (Homo sapiens, UniProt P10827); assay: In vitro TR-α activity (in-house protocol); format: cell-based
# T2 sequence (P10827 1-410 isoform P10827-2): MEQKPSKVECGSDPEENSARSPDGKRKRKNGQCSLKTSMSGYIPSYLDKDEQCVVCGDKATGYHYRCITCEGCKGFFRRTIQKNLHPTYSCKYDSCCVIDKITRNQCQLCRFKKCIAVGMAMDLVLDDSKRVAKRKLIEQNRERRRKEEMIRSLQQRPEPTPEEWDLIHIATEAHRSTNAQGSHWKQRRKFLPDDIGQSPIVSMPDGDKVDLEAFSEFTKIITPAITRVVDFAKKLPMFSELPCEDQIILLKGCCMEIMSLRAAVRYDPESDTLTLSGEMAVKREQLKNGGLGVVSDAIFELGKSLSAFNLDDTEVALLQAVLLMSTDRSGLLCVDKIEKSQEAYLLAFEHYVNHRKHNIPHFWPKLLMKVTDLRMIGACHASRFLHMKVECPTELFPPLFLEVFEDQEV
# Experimental: as §1
SMILES,fold induction at 0.001 µM (TR-β),fold induction at 0.01 µM (TR-β),fold induction at 0.1 µM (TR-β),fold induction at 1 µM (TR-β),TR-α Fold Induction w.r.t T3(100 nm) (TR-α; Conc. 1 nM),TR-α Fold Induction w.r.t T3(100 nm) (TR-α; Conc. 10 nM),TR-α Fold Induction w.r.t T3(100 nm) (TR-α; Conc. 100 nM),TR-α Fold Induction w.r.t T3(100 nm) (TR-α; Conc. 1000 nM),EC50 (TR-β) [nM],EC50 (TR-α) [nM]
"CC(C)c1cc(Oc2c(Cl)cc(N(CC(=O)O)C(=O)Oc3ccc(O)cc3)cc2Cl)ccc1O [Example 32, [[3,5-Dichloro-4-(4-hydroxy-3-isopropyl-phenoxy)-phenyl]-(4-hydroxy-phenoxycarbonyl)-amino]-acetic acid]",24.7,73.7,119,94.9,23.36,74.20,87.50,72.37,–,–
"O=C(O)CN(CC(=O)O)c1cc(Cl)c(Oc2ccc(O)c(S(=O)(=O)N3CCCCC3)c2)c(Cl)c1 [Example 33, (Carboxymethyl-{3,5-dichloro-4-[4-hydroxy-3-(piperidine-1-sulfonyl)-phenoxy]-phenyl}-amino)-acetic acid]",8.63,11.9,26,46.8,9.66,13.90,25.46,46.33,–,–
"CC(C)(C)c1cc(Oc2c(Cl)cc(N(CC(=O)O)CC(=O)O)cc2Cl)ccc1O [Example 34, {[4-(3-tert-Butyl-4-hydroxy-phenoxy)-3,5-dichloro-phenyl]-carboxymethyl-amino}-acetic acid]",8.37,21.3,51.1,55.7,12.66,26.23,62.95,53.76,–,–
"CC(C)(C)c1cc(Oc2c(Cl)cc(N(CC(=O)O)C(=O)Oc3ccc(O)cc3)cc2Cl)ccc1O [Example 35, [[4-(3-tert-Butyl-4-hydroxy-phenoxy)-3,5-dichloro-phenyl]-(4-hydroxy-phenoxycarbonyl)-amino]-acetic acid]",22.4,80.5,125,81.3,25.40,106.00,130.68,72.06,–,–
"Cc1cc(N(CC(=O)O)CC(=O)O)cc(C)c1Oc1ccc(O)c(C(C)C)c1 [Example 37, {Carboxymethyl-[4-(4-hydroxy-3-isopropyl-phenoxy)-3,5-dimethyl-phenyl]-amino}-acetic acid]",21.2,66.7,125,95.6,14.93,40.84,71.78,63.71,–,–
"CN(C)S(=O)(=O)c1cc(Oc2c(Cl)cc(N(CC(=O)O)C(=O)Oc3ccc(O)cc3)cc2Cl)ccc1O [Example 38, [[3,5-Dichloro-4-(3-dimethylsulfamoyl-4-hydroxy-phenoxy)-phenyl]-(4-hydroxy-phenoxycarbonyl)-amino]-acetic acid]",12.3,16.9,43.5,81.4,09.36,13.61,25.32,41.59,–,–
"O=C(O)CN(C(=O)Oc1ccc(O)cc1)c1cc(Cl)c(Oc2ccc(O)c(S(=O)(=O)N3CCCCC3)c2)c(Cl)c1 [Example 41, [{3,5-Dichloro-4-[4-hydroxy-3-(piperidine-1-sulfonyl)-phenoxy]-phenyl}-(4-hydroxy-phenoxycarbonyl)-amino]-acetic acid]",23.3,73.5,90,67,20.78,56.19,99.00,78.50,–,–
"Cc1cc(N(CC(=O)O)C(=O)Oc2ccc(O)cc2)cc(C)c1Oc1ccc(O)c(C(C)C)c1 [Example 42, [[4-(4-Hydroxy-3-isopropyl-phenoxy)-3,5-dimethyl-phenyl]-(4-hydroxy-phenoxycarbonyl)-amino]-acetic acid]",12.9,41.4,91.9,86,11.05,26.63,72.96,80.89,–,–
"O=C(O)CN(C(=O)Oc1ccc(O)cc1)c1cc(Cl)c(Oc2ccc(O)c(C(=O)c3ccc(Cl)cc3)c2)c(Cl)c1 [Example 44, [{3,5-Dichloro-4-[3-(4-chloro-benzoyl)-4-hydroxy-phenoxy]-phenyl}-(4-hydroxy-phenoxycarbonyl)-amino]-acetic acid]",–,–,–,–,–,–,–,–,14.8,84.8
"CC(C)NS(=O)(=O)c1cc(Oc2c(Cl)cc(N(CC(=O)O)C(=O)Oc3ccc(O)cc3)cc2Cl)ccc1O [Example 45, [[3,5-Dichloro-4-(4-hydroxy-3-isopropylsulfamoyl-phenoxy)-phenyl]-(4-hydroxy-phenoxycarbonyl)-amino]-acetic acid]",13.5,18.7,47.1,88.9,10.48,12.02,23.05,50.62,–,–
"O=C(O)CN(C(=O)Oc1ccc(O)cc1)c1cc(Cl)c(Oc2ccc(O)c(C(=O)c3cccc(Cl)c3)c2)c(Cl)c1 [Example 47, [{3,5-Dichloro-4-[3-(3-chloro-benzoyl)-4-hydroxy-phenoxy]-phenyl}-(4-hydroxy-phenoxycarbonyl)-amino]-acetic acid]",–,–,–,–,–,–,–,–,11.3,16.4
"CCc1cc(Oc2c(Cl)cc(N(CC(=O)O)C(=O)Oc3ccc(O)cc3)cc2Cl)ccc1O [Example 48, [[3,5-Dichloro-4-(3-ethyl-4-hydroxy-phenoxy)-phenyl]-(4-hydroxy-phenoxycarbonyl)-amino]-acetic acid]",9.02,19.4,47.7,37.6,08.16,17.51,34.61,45.08,–,–
"O=C(O)CN(C(=O)Oc1ccc(O)cc1)c1cc(Cl)c(Oc2ccc(O)c(-c3ccccc3)c2)c(Cl)c1 [Example 49, [[3,5-Dichloro-4-(6-hydroxy-biphenyl-3-yloxy)-phenyl]-(4-hydroxy-phenoxycarbonyl)-amino]-acetic acid]",–,–,–,–,–,–,–,–,10.3,38
"O=C(O)CN(C(=O)Oc1ccc(O)cc1)c1cc(Cl)c(Oc2ccc(O)c(Cc3ccccc3)c2)c(Cl)c1 [Example 50, [[4-(3-Benzyl-4-hydroxy-phenoxy)-3,5-dichloro-phenyl]-(4-hydroxy-phenoxycarbonyl)-amino]-acetic acid]",–,–,–,–,–,–,–,–,6.2,23.3
"O=C(O)CN(C(=O)Oc1ccc(O)cc1)c1cc(Cl)c(Oc2ccc(O)c(S(=O)(=O)NC3CCC3)c2)c(Cl)c1 [Example 51, [[3,5-Dichloro-4-(3-cyclobutylsulfamoyl-4-hydroxy-phenoxy)-phenyl]-(4-hydroxy-phenoxycarbonyl)-amino]-acetic acid]",8.68,17,54.6,102,08.05,14.43,32.52,83.34,–,–
"O=C(O)CN(C(=O)Oc1ccc(O)cc1)c1cc(Br)c(Oc2ccc(O)c(S(=O)(=O)NC3CC4CCC3C4)c2)c(Br)c1 (centres unmarked) [Example 53, [{4-[3-(Bicyclo[2.2.1]hept-2-ylsulfamoyl)-4-hydroxy-phenoxy]-3,5-dibromo-phenyl}-(4-hydroxy-phenoxycarbonyl)-amino]-acetic acid]",11,12.9,27,91.7,11.19,12.00,17.15,50.30,–,–
